Laboratory results reported in ChEMBL document CHEMBL6078649, “Discovery of Chalcone Derivatives as Bifunctional Molecules with Anti-SARS-CoV-2 and Anti-inflammatory Activities” (J Nat Prod, 2024).
Activity calls are given as the source filed them. The calls are words filed in the database; no cut-off is given here.

Key:
[1] = Cytotoxicity against human Huh-7 cells harboring viral replicon/EGFP/Neo genes assessed as cell viability incubated for 24 hrs by Cell Titer Glo assay; assay type: toxicity, cell-based
[2] = target: Transmembrane protease serine 2 (Homo sapiens) (UniProt O15393); experiment: Inhibition of TMPRSS2 (unknown origin) using Boc-GIn-Ala-Arg-AMC as substrate at 10 uM preincubated for 60 mins followed by substrate addition by fluorescence based assay
[3] = Cytotoxicity against human Huh-7 cells harboring viral replicon/EGFP/Neo genes assessed as cell viability at 5 uM incubated for 24 hrs by Cell Titer Glo assay relative to control; assay type: toxicity, cell-based; conditions: read-out: Activity
[4] = Cytotoxicity against mouse RAW264.7 cells assessed as cell viability at 10 uM incubated for 24 hrs by CCK8 assay relative to control; assay type: toxicity, cell-based; conditions: read-out: Activity
[5] = Cytotoxicity against human Huh-7 cells harboring viral replicon/EGFP/Neo genes assessed as cell viability at 50 uM incubated for 24 hrs by Cell Titer Glo assay relative to control; assay type: toxicity, cell-based; conditions: read-out: Activity
RAW264.7 [6] = experiment: Anti-inflammatory activity against mouse RAW264.7 cells assessed as inhibition of LPS-induced NO production at 1 uM preincubated for 1 hr followed by LPS treatment measured after 24 hrs relative to control; assay type: functional; conditions: time 25 hrs
[7] = Cytotoxicity against mouse RAW264.7 cells assessed as cell viability at 1 uM incubated for 24 hrs by CCK8 assay relative to control; assay type: toxicity, cell-based; conditions: read-out: Activity
[8] = target: T1, Replicase polyprotein 1ab (Severe acute respiratory syndrome coronavirus 2, UniProt P0DTD1)
RAW264.7 [9] = experiment: Anti-inflammatory activity against mouse RAW264.7 cells assessed as inhibition of LPS-induced NO production at 10 uM preincubated for 1 hr followed by LPS treatment measured after 24 hrs relative to control; assay type: functional; conditions: time 25 hrs
[10] = Cytotoxicity against mouse RAW264.7 cells assessed as cell viability at 50 uM incubated for 24 hrs by CCK8 assay relative to control; assay type: toxicity, cell-based; conditions: read-out: Activity
[11] = target: Cathepsin B (Homo sapiens) (UniProt P07858); experiment: Inhibition of CTSB (unknown origin) using Z-Phe-ArgAMC as substrate at 10 uM preincubated for 30 mins followed by substrate addition by fluorescence based analysis
[12] = target: T2, Chymotrypsin-C (Homo sapiens) (UniProt Q99895); experiment: Inhibition of human CTRC using succinyl-Ala-Ala-Pro-Phe-p-nitroanilide as substrate at 10 uM preincubated for 30 mins followed by trypsin treatment for 1 hr and subsequent addition of substrate by absorbance based assay
T2 sequence (whole entry): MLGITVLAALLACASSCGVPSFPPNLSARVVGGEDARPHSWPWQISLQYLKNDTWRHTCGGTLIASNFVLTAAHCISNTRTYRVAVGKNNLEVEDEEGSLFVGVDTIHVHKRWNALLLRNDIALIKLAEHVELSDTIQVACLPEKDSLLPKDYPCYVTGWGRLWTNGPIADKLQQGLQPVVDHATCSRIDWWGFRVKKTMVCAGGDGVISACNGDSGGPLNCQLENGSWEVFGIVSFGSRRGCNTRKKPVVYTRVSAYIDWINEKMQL

[13] = target: Procathepsin L (Homo sapiens) (UniProt P07711); experiment: Inhibition of CTSL (unknown origin) using Z-Phe-ArgAMC as substrate at 10 uM preincubated for 30 mins followed by substrate addition by fluorescence based analysis
[14] = target: T1, Replicase polyprotein 1ab; experiment: Inhibition of SARS-CoV-2 3CLPro using DabcylKNSTLQSGLRK-Edans as substrate measured after 60 mins by FRET assay
[15] = target: T1, Replicase polyprotein 1ab; experiment: Inhibition of SARS-CoV-2 3CLPro using DabcylKNSTLQSGLRK-Edans as substrate measured after 3 mins by FRET assay
[16] = target: Replicase polyprotein 1ab (Severe acute respiratory syndrome coronavirus 2) (UniProt P0DTD1); experiment: Covalent binding affinity to SARS-CoV-2 3CLPro at 90 uM by MS analysis
[17] = target: Replicase polyprotein 1ab (Severe acute respiratory syndrome coronavirus 2) (UniProt P0DTD1); experiment: Inhibition of SARS-CoV-2 3CLPro using DabcylKNSTLQSGLRK-Edans as substrate at 50 uM preincubated for 30 mins followed by substrate addition measured after 20 mins by FRET assay relative to control; conditions: time 50.0 min
[18] = target: Replicase polyprotein 1ab (Severe acute respiratory syndrome coronavirus 2) (UniProt P0DTD1); experiment: Inhibition of SARS-CoV-2 3CLPro using DabcylKNSTLQSGLRK-Edans as substrate at 5 uM preincubated for 30 mins followed by substrate addition measured after 20 mins by FRET assay relative to control; conditions: time 50.0 min
143B = experiment: Inhibition of cell proliferation of human 143B cells at 10 uM; assay type: functional, cell-based
SJSA-1 = experiment: Inhibition of cell proliferation of human SJSA-1 cells at 10 uM; assay type: functional, cell-based
MGC-803 = experiment: Inhibition of cell proliferation of human MGC-803 cells at 10 uM; assay type: functional, cell-based
GES1 = experiment: Inhibition of cell proliferation of human GES1 cells at 10 uM; assay type: functional, cell-based
[19] = target: T1, Replicase polyprotein 1ab; experiment: (§1) Mixed inhibition of SARS-CoV-2 3CLPro using DabcylKNSTLQSGLRK-Edans as substrate by FRET assay
[20] = target: Replicase polyprotein 1ab (Severe acute respiratory syndrome coronavirus 2) (UniProt P0DTD1); experiment: as §1
KHOS/NP = experiment: Inhibition of cell proliferation of human KHOS/NP cells at 10 uM; assay type: functional, cell-based
HOS-TE85 = experiment: Inhibition of cell proliferation of human MNNG/HOS cells at 10 uM; assay type: functional, cell-based

Transmembrane protease serine 2 (Homo sapiens), sequence (O15393 1-255 limits assumed): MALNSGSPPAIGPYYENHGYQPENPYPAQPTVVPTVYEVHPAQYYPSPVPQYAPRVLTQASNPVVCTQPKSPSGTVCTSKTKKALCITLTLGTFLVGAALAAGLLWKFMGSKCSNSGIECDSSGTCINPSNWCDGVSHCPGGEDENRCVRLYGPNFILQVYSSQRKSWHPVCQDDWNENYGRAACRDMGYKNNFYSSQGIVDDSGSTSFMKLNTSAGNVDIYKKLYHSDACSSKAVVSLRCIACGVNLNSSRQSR
Transmembrane protease serine 2 (Homo sapiens), sequence (O15393 256-492 limits assumed): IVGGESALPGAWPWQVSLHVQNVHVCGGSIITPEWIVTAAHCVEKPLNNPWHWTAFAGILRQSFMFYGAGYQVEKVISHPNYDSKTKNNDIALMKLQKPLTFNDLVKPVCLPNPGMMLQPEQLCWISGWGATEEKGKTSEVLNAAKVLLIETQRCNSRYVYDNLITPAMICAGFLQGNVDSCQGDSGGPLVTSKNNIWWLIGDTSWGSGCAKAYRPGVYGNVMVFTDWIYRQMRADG
Procathepsin L (Homo sapiens), sequence (P07711 114-333 limits assumed): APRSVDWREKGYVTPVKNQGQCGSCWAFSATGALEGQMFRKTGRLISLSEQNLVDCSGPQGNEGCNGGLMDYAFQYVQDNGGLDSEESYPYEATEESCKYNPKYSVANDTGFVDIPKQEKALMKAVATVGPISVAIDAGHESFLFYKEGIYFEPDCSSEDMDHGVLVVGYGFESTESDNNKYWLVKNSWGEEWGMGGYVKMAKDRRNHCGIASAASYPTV

Row | SMILES | CC50 at 24 h [1] | inhibition [2] | viability at 24 h, 5 µM [3] | viability at 24 h, 10 µM [4] | viability at 24 h, 50 µM [5] | inhibition at 1 µM (RAW264.7 [6]) | viability at 24 h, 1 µM [7] | IC50 [8] | inhibition at 10 µM (RAW264.7 [9]) | viability at 24 h, 50 µM [10] | inhibition [11] | inhibition [12] | inhibition [13] | IC50 [14] | IC50 [15] | Activity [16] | inhibition [17] | inhibition [18] | further results
1 | O=C(/C=C/c1cc(O)c(O)c(O)c1)c1ccc(F)cc1 | > 50 µM | inactive | 95.2% | 109% | 63.4% | 4.2% | 116% | 0.261 µM | 68.6% | 100% | inactive | Active | inactive | 0.0934 µM | 0.461 µM | Active | 0.5% | 2.5% | Ki [8]: 0.8 µM
2 | O=C(/C=C/c1c(Cl)c(O)c(O)c(O)c1Cl)c1ccc(F)cc1 | 41.2 µM | Active | 104% | 48.6% | 50% | 29.1% | 93.7% | 0.0832 µM | 81.1% | 114% | inactive | Active | inactive | 0.11 µM | 0.211 µM | inactive | -0.1% | 0.8% | inhibition (143B): inactive; inhibition (SJSA-1): inactive; inhibition (MGC-803): inactive; inhibition (GES1): inactive; Ki [19]: 0.2 µM; inhibition [20]: Dose-dependent-effect; The Result Suggests That Compound May Bind To Both Enzymatic Active Site And Allosteric Sites; inhibition (KHOS/NP): inactive; inhibition (HOS-TE85): inactive
